The source of these data is patent US6093732A, “4-hydroxyquinoline-3-carboxamides and hydrazides as antiviral agents” (Pharmacia & Upjohn Company, priority 1998, dated 2000).

T1 sequence (P08546 whole entry): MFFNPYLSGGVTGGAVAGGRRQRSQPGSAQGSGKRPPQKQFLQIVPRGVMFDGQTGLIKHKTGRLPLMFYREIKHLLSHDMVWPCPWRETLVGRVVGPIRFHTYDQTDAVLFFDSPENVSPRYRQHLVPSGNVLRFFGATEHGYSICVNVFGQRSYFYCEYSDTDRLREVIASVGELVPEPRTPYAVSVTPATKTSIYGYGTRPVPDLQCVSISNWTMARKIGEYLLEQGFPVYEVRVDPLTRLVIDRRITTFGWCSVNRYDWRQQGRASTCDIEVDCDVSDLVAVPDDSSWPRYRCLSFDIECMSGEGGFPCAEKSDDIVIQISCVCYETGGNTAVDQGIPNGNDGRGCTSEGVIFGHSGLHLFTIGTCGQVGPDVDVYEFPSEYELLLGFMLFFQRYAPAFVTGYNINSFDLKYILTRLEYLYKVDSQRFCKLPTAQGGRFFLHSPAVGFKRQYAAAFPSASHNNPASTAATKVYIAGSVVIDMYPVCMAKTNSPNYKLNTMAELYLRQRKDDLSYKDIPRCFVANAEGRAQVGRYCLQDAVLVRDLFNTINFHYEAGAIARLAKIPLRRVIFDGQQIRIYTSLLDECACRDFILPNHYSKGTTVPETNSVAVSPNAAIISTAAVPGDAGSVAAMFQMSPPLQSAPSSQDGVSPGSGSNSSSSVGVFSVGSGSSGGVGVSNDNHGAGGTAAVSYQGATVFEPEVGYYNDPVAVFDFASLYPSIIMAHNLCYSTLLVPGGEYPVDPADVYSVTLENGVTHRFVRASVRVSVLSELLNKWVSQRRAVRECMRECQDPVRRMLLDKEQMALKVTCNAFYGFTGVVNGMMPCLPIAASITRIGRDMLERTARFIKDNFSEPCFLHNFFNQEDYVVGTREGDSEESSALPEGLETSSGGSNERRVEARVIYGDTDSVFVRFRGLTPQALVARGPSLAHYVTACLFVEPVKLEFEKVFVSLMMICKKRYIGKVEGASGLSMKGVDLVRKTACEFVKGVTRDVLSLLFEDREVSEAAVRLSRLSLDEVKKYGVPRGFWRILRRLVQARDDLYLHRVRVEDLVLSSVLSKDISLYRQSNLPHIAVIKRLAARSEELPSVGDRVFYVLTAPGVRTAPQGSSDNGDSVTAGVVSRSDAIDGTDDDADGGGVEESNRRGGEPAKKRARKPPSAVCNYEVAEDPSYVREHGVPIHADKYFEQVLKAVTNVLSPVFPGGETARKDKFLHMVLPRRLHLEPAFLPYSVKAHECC

This test concerns the target T1, HCMV polymerase (Human cytomegalovirus, UniProt P08546).
T1 construct: made in house; host or cells: recombinant baculovirus-infected SF-9 cells
As to the kind of experiment: HCMV polymerase scintillation proximity assay (SPA), modified version. The format is biochemical. To be noted: CMV polymerase; Table 1; modified assay with 4.5 mM DTT, compounds in 100% DMSO; read-out: Antiviral Selective Polymerase IC50 Values, CMV. The method in brief:
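Recombinant polymerase (baculovirus/SF-9) in 5.4 mM HEPES pH 7.5, 11.7 mM KCl, 4.5 mM MgCl2, 0.36 mg/ml BSA, 90 nM 3H-dTTP, ±2 mM CHAPS; started with 6 nM biotinylated poly(dA)-oligo(dT), 25° C or 37° C, EDTA-stopped in linear range (30 min for HCMV). Streptavidin-SPA read; IC50 by linear regression. Modified version: 100% DMSO compound dilution, 4.5 mM DTT added.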
On the technique in general: SPA uses beads or plates that emit light when radiolabelled molecules are held near them.
By IC50 is commonly meant the point on the concentration scale where inhibition reaches its midpoint. Consider `O=C(NCc1ccc(Cl)cc1)c1cnc2c(F)cc(S(=O)(=O)NCc3ccncc3)cc2c1O` [Example 219, N-(4-chlorobenzyl)-8-fluoro-4-hydroxy-6-{[(4-pyridinylmethyl)amino]sulfonyl}-3-quinolinecarboxamide], for which the IC50 came out at 11 µM.

As for `O=C(NCc1ccc(Cl)cc1)c1cnc2c(F)cc(S(=O)(=O)NCc3ccc(Cl)cc3)cc2c1O` [Example 220, N-(4-chlorobenzyl)-6-{[(4-chlorobenzyl)amino]sulfonyl}-8-fluoro-4-hydroxy-3-quinolinecarboxamide], the IC50 worked out at 10.7 µM. Regarding `COc1ccc(CNS(=O)(=O)c2cc(F)c3ncc(C(=O)NCc4ccc(Cl)cc4)c(O)c3c2)cc1` [Example 221, N-(4-chlorobenzyl)-8-fluoro-4-hydroxy-6-{[(4-methoxybenzyl)amino]sulfonyl}-3-quinolinecarboxamide], the IC50 amounted to 12.5 µM. In the case of `CC(C)(C)CNS(=O)(=O)c1cc(F)c2ncc(C(=O)NCc3ccc(Cl)cc3)c(O)c2c1` [Example 222, N-(4-chlorobenzyl)-8-fluoro-4-hydroxy-6-[(neopentylamino)sulfonyl]-3-quinolinecarboxamide], the IC50 was 11.5 µM. For `CC(O)CNS(=O)(=O)c1cc(F)c2ncc(C(=O)NCc3ccc(Cl)cc3)c(O)c2c1` (stereo not drawn) [Example 223, N-(4-chlorobenzyl)-8-fluoro-4-hydroxy-6-{[(2-hydroxypropyl)amino]sulfonyl}-3-quinolinecarboxamide], the IC50 came out at 14.5 µM. Then `O=C(NCc1ccc(Cl)cc1)c1cnc2c(F)cc(S(=O)(=O)NCC(O)CO)cc2c1O` (stereo not drawn) [Example 224, N-(4-chlorobenzyl)-6-{[(2,3-dihydroxypropyl)amino]sulfonyl}-8-fluoro-4-hydroxy-3-quinolinecarboxamide], with 21.6 µM; and `O=C(NCc1ccc(Cl)cc1)c1cnc2c(F)cc(S(=O)(=O)NCC(c3ccccc3)c3ccccc3)cc2c1O` [Example 225, N-(4-chlorobenzyl)-6-{[(2,2-diphenylethyl)amino]sulfonyl}-8-fluoro-4-hydroxy-3-quinolinecarboxamide], with 8.5 µM. Take `O=C(O)CCCCCCCCCCNS(=O)(=O)c1cc(F)c2ncc(C(=O)NCc3ccc(Cl)cc3)c(O)c2c1` [Example 226, 11-{[(3-{[(4-chlorobenzyl)amino]carbonyl}-8-fluoro-4-hydroxy-6-quinolinyl)sulfonyl]amino}undecanoic acid]: the IC50 stood at 18.5 µM. Regarding `CC(=O)NCCNS(=O)(=O)c1cc(F)c2ncc(C(=O)NCc3ccc(Cl)cc3)c(O)c2c1` [Example 227, 6-({[2-(acetylamino)ethyl]amino}sulfonyl)-N-(4-chlorobenzyl)-8-fluoro-4-hydroxy-3-quinolinecarboxamide], the IC50 worked out at 26.7 µM.

Take `O=C(NCc1ccc(Cl)cc1)c1cnc2c(F)cc(S(=O)(=O)NCCOCCO)cc2c1O` [Example 228, N-(4-chlorobenzyl)-8-fluoro-4-hydroxy-6-({[2-(2-hydroxyethoxy)ethyl]amino}sulfonyl)-3-quinolinecarboxamide]: the IC50 came to 44.3 µM. Turning to `O=C(NCc1ccc(Cl)cc1)c1cnc2c(F)cc(S(=O)(=O)NCCO)cc2c1O` [Example 229, N-(4-chlorobenzyl)-8-fluoro-4-hydroxy-6-{[(2-hydroxyethyl)amino]sulfonyl}-3-quinolinecarboxamide], the IC50 came to 10.7 µM. As for `O=C(NCc1ccc(Cl)cc1)c1cnc2c(F)cc(S(=O)(=O)NCCc3ccccc3)cc2c1O` [Example 230, N-(4-chlorobenzyl)-8-fluoro-4-hydroxy-6-[(phenethylamino)sulfonyl]-3-quinolinecarboxamide], the figure is 9.6 µM.

Regarding `O=C(NCc1ccc(Cl)cc1)c1cnc2c(F)cc(S(=O)(=O)NCCc3ccc(Cl)cc3)cc2c1O` [Example 231, N-(4-chlorobenzyl)-6-{[(4-chlorophenethyl)amino]sulfonyl}-8-fluoro-4-hydroxy-3-quinolinecarboxamide], the IC50 was 8.3 µM.

Take `C#CCNS(=O)(=O)c1cc(F)c2ncc(C(=O)NCc3ccc(Cl)cc3)c(O)c2c1` [Example 232, N-(4-chlorobenzyl)-8-fluoro-4-hydroxy-6-[(2-propynylamino)sulfonyl]-3-quinolinecarboxamide]: the IC50 is 23.4 µM. Consider `CC(C)CCNS(=O)(=O)c1cc(F)c2ncc(C(=O)NCc3ccc(Cl)cc3)c(O)c2c1` [Example 233, N-(4-chlorobenzyl)-8-fluoro-4-hydroxy-6-[(isopentylamino)sulfonyl]-3-quinolinecarboxamide], for which the IC50 stood at 11.2 µM. Consider `O=C(NCc1ccc(Cl)cc1)c1cnc2c(F)cc(S(=O)(=O)NCCCc3ccccc3)cc2c1O` [Example 234, N-(4-chlorobenzyl)-8-fluoro-4-hydroxy-6-{[(3-phenylpropyl)amino]sulfonyl}-3-quinolinecarboxamide], for which the IC50 came out at 8.9 µM.

Turning to `CCCCCNS(=O)(=O)c1cc(F)c2ncc(C(=O)NCc3ccc(Cl)cc3)c(O)c2c1` [Example 235, N-(4-chlorobenzyl)-8-fluoro-4-hydroxy-6-[(pentylamino)sulfonyl]-3-quinolinecarboxamide], the IC50 came to 11.8 µM.

As for `O=C(NCc1ccc(Cl)cc1)c1cnc2c(F)cc(S(=O)(=O)NCc3cc(C(F)(F)F)cc(C(F)(F)F)c3)cc2c1O` [Example 236, 6-({[3,5-bis(trifluoromethyl)benzyl]amino}sulfonyl)-N-(4-chlorobenzyl)-8-fluoro-4-hydroxy-3-quinolinecarboxamide], the IC50 was determined as 6.6 µM. For `O=C(NCc1ccc(Cl)cc1)c1cnc2c(F)cc(S(=O)(=O)NCCC3=CCCCC3)cc2c1O` [Example 237, N-(4-chlorobenzyl)-6-({[2-(1-cyclohexen-1-yl)ethyl]amino}-sulfonyl)-8-fluoro-4-hydroxy-3-quinolinecarboxamide], the IC50 came out at 6.9 µM.

For the compound `O=C(NCc1ccc(Cl)cc1)c1cnc2c(F)cc(S(=O)(=O)NCCNc3cccc4ccccc34)cc2c1O` [Example 238, N-(4-chlorobenzyl)-8-fluoro-4-hydroxy-6-({[2-(1-naphthylamino)ethyl]amino}sulfonyl)-3-quinolinecarboxamide], the IC50 stood at 1.6 µM. For the compound `CNS(=O)(=O)c1cc(F)c2ncc(C(=O)NCc3ccc(Cl)cc3)c(O)c2c1` [Example 239, N-(4-chlorobenzyl)-8-fluoro-4-hydroxy-6-[(methylamino)sulfonyl]-3-quinolinecarboxamide], the IC50 is 13.1 µM. In the case of `N#CCNS(=O)(=O)c1cc(F)c2ncc(C(=O)NCc3ccc(Cl)cc3)c(O)c2c1` [Example 240, N-(4-chlorobenzyl)-6-{[(cyanomethyl)amino]sulfonyl}-8-fluoro-4-hydroxy-3-quinolinecarboxamide], the IC50 is 11.4 µM. As for `COc1ccc(CNS(=O)(=O)c2cc(F)c3ncc(C(=O)NCc4ccc(Cl)cc4)c(O)c3c2)c(OC)c1` [Example 241, N-(4-chlorobenzyl)-6-{[(2,4-dimethoxybenzyl)amino]sulfonyl}-8-fluoro-4-hydroxy-3-quinolinecarboxamide], the figure is 16 µM.

On to `O=C(NCc1ccc(Cl)cc1)c1cnc2c(F)cc(S(=O)(=O)NCc3cccc(I)c3)cc2c1O` [Example 242, N-(4-chlorobenzyl)-8-fluoro-4-hydroxy-6-{[(3-iodobenzyl)amino]sulfonyl}-3-quinolinecarboxamide], for which the IC50 came out at 8.4 µM.
